Patent publication US20020037495A1, “High throughput screening for inhibitors of fatty acid, ergosterol, sphingolipid, or phospholipid synthesis in fungi” (priority 2000, published 2002)
≈ marks a conversion by molar mass, not a printed value. Like-named read-outs stand apart in the source and are kept apart here.

Tests used:
[1] = tested on: OLE1, YOL101c, and YGL039w genes; experiment: Transcriptional profiling (TxP) of yeast treated with FAS inhibitor; format: cell-based; settings: 0.1, 0.2 and 0.3 μM; 3 and 5 hour time points
Description: Logarithmically growing hypersensitive yeast MMB 1489 (Δpdr5 Δsnq2) cells were treated with cerulenin at 0.5 X, 1 X, and 1.5 X the MIC value (0.1, 0.2 and 0.3 μM) and cells were harvested at 1, 3 and 5 hour time points following drug treatment. Total RNA was obtained from cell pellets treated with 0.1, 0.2, and 0.3 μM cerulenin. […] Following hybridization, the data was normalized, filtered and analyzed.

[2] = tested on: S. cerevisiae MMB1493 or C. albicans SC5314 or Y01.06; experiment: 14C-acetate incorporation into fatty acids; format: cell-based; settings: 10 minutes preincubation, 10 minutes with 14C-acetate, 30° C.
Description: Generally, ^14C-acetate incorporation is measured essentially as described in Kuhajda et al., P.N.A.S., 91:6379-6383, 1994. Logarithmically growing cells (4^8 cells of S. cerevisiae MMB1493 or C. albicans SC5314 or Y01.06) were preincubated with 100 μM compounds in DMSO for 10 minutes at 30° C. ^14C-Acetate was added to 20 μCi, mixed and further incubated for 10 minutes at 30° C. Fatty acids were recovered by alkaline ethanolysis (7.5% KOH in 90% ethanol, 1 00ul) at 50° C. for 1 hour, followed by acidification with concentrated HCl (15 μl) and petroleum ether extraction. The radioactivity in the organic layer was counted using a Beckman LS650 multipurpose scintillation counter using Betamax (ICN) scintillation fluid. Cerulenin was used as control at 100 μM; at this concentration 80-90% inhibition was routinely observed in this assay.

OLE1 promoter = experiment: OLE1 promoter-lacZ reporter induction (chemiluminescence); format: cell-based, S. cerevisiae
Excerpt: (§1) The OLE1, YOL101c, and YGL039w promoters (along with their respective ATG translation start sites) each were, individually, flised to a lacZ reporter gene (which lacked an ATG translation start site) and introduced in the vector pRS415. The resulting reporter plasmids were then, separately, introduced into a multi-drug resistant yeast strain, thereby producing PL1, P41, and Ml, which are identical to each other except that PL1 carries the […], and M1 carries the YGL039w promoter (Millennium Pharmaceuticals, Inc., MMB#1495, 1497 and 1604, respectively). These yeast strains can be readily used to measure the level of activity of the OLE1, YOL101c, or YGL039w promoter by measuring expression of the lacZ gene. Enzymatic and colorimetric assays for measuring lacZ gene expression are well known in the art and can be used in the invention.
For example, the test compounds can be tested at concentrations of 25 μM and 100 μM. In a convenient high throughput screening method, the test compounds can be assayed in the wells of a multiple-well (e.g., 96-well) plastic plate (e.g., Packard, Inc. Cat. # 6005181), with each well containing a different test compound. Thus, one plate can contain the test compounds at a concentration of 25 μM, while another plate contains the test compounds at a concentration of 100 μM. Each well also contains up to 2.5% DMSO.
Cerulenin is used as a positive control in wells lacking a test compound. A stock solution of cerulenin (2,3-Epoxy-4-oxo-[…]) can be prepared to a concentration of 10 mg/ml in DMSO and stored at −20° C.
Induction of OLE1 Promoter Activity: The yeast glycerol stocks described above are used to prepare fresh yeast cultures that are used in the screening assays. The cell suspension, if frozen, is thawed at 37° C., and 33 μl of the stock is added to 12 ml of SC-Leu medium. The culture then is incubated in a shaking Erlemneyer flask at 30° C. overnight (approximately 14-15 hours). The OD600 of the culture then is measured, with a culture having an OD600 of 0.05-0.15 being suitable for use. […] 1; if necessary, the culture can be diluted with SC-Leu medium to obtain the desired OD600. A 100 μI aliquot of the yeast culture then is added to each well of the 96-well plate containing a test compound, and the cultures are incubated at 30° C. for approximately 6 hours.
To assay for an increase in the activity of the OLE1 promoter, an increase in the level of the lacZ reporter gene expression is measured. A 100 μl aliquot of 2 X substrate buffer is added to each well of the plate. To produce a 100 ml sample of 2 X substrate buffer, the following components are mixed within 1 hour of use, and kept at room temperature: 4.0 ml of GALACTON-STAR™ substrate ((3-chloro-5-(4-methoxyspiro { 1,2-dioxetane-3,2′-(4′chloro)-tricyclo-[3.3.1.1 ^3,7] decan} -4-yl)phenyl-B-D-galactopyranoside); Tropix, Inc., Cat. #GS100), 20.0 ml of SAPHIRE II™ luminescence signal enhancer (Tropix, Inc., Cat. #LAX250), and 76 ml of Lysis Buffer (0.026% Na Deoxycholic acid, 0.053% CTAB, 265 mM NaCl, 395 mM HEPES, pH 7.5). The plates are incubated at room temperature for 45 minutes, before vortexing them for 30 seconds at a low to moderate speed.
A chemiluminescent signal is produced by reaction of β-galactosidase with the substrate. Chemiluminescence can be measured using a TopCount-HTS, with the data mode set to measure […], and with a count time of 0.1 minute. Generally, chemiluminescence should be measured before significant signal decay occurs (i.e., within approximately 90 minutes of initiating the reaction).
Screening plates containing 80,000 individual small molecule compounds (comprising a diversity file) were prepared at concentrations of 100 μM in 96-well plastic clear-bottom plates (Packard, Inc. Cat. # 6005181).

S. cerevisiae mdr mutant = experiment: Fungal growth inhibition (OD600) / MIC testing; format: cell-based; settings: for MIC: Saccharomyces cerevisiae
Description: Assay of Fungal Growth Inhibition: If desired, the ability of each candidate compound to inhibit fungal growth can readily be measured as follows. After incubating the yeast cultures and test compounds for 6 hours in the 96-well plates, as described above, the OD600 of the plates is measured (e.g., using a Wallac/Victor 2 plate reader). The OD600 can be measured before or after the above-described chemiluminescent assay. A test compound that decreases the OD600 of a yeast culture, relative to the OD600 obtained in the absence of the candidate compound, is an antifungal agent.
For the assay, the reporter strains were grown at 30° C. overnight (approximately 14-15 hours) in SC-Leu medium. Typically, the cultures were grown to an OD600 of 0.1, though cells at OD600 of 0.05-0.15 were also appropriate. Plates were then seeded with a 100 μl aliquot of the yeast culture and incubated at 30° C. for approximately 6 hours. To identify antifungal compounds (those affording growth inhibition), the OD600 was measured using a Wallac/Victor 2 plate reader.
The library of 80,000 small molecule compounds was screened for FAS inhibitors at concentration of 100 μM with the Pole1-lacZ reporter strain. Hits were defined as compounds that afforded 2-fold Pole1-lacZ induction. The primary screen yielded 850 hits (1.1% hit rate) as defined above. Among these, 182 were deemed structurally acceptable and subjected to retesting using the same Pole1-IacZ induction assay and an antifungal assay by growth inhibition in MIC testing.

YOL101c promoter = experiment: YOL101c promoter-lacZ reporter induction (chemiluminescence); format: cell-based, S. cerevisiae
Excerpt: as §1

YGL039w promoter = experiment: YGL039w promoter-lacZ reporter induction; format: cell-based, S. cerevisiae
Excerpt: as §1
Having determined that antiflingal agents like cerulenin increase the activity of the OLE1 and YOL101 c promoters, yeast strains containing one or both promoters each operably linked to a reporter gene (e.g., lacZ) can be used in a method for determining whether a test compound is an inhibitor of fungal fatty acid synthesis and is thus a candidate antifungal agent. Such a method can be carried out as follows. […]

[3] = molecular target: T1, Saccharomyces cerevisiae FAS complex (Saccharomyces cerevisiae, UniProt P07149+P19097); experiment: FAS assay measuring NADPH oxidation; format: biochemical
T1 construct: A FAS assay using partially purified S. cerevisiae FAS complex was used to measure NADPH oxidation; tissue Sigma; host or cells: yeast extract (Sigma), FAS complex partially purified after Stoops et al. 1978
T1 sequence (P07149 whole entry): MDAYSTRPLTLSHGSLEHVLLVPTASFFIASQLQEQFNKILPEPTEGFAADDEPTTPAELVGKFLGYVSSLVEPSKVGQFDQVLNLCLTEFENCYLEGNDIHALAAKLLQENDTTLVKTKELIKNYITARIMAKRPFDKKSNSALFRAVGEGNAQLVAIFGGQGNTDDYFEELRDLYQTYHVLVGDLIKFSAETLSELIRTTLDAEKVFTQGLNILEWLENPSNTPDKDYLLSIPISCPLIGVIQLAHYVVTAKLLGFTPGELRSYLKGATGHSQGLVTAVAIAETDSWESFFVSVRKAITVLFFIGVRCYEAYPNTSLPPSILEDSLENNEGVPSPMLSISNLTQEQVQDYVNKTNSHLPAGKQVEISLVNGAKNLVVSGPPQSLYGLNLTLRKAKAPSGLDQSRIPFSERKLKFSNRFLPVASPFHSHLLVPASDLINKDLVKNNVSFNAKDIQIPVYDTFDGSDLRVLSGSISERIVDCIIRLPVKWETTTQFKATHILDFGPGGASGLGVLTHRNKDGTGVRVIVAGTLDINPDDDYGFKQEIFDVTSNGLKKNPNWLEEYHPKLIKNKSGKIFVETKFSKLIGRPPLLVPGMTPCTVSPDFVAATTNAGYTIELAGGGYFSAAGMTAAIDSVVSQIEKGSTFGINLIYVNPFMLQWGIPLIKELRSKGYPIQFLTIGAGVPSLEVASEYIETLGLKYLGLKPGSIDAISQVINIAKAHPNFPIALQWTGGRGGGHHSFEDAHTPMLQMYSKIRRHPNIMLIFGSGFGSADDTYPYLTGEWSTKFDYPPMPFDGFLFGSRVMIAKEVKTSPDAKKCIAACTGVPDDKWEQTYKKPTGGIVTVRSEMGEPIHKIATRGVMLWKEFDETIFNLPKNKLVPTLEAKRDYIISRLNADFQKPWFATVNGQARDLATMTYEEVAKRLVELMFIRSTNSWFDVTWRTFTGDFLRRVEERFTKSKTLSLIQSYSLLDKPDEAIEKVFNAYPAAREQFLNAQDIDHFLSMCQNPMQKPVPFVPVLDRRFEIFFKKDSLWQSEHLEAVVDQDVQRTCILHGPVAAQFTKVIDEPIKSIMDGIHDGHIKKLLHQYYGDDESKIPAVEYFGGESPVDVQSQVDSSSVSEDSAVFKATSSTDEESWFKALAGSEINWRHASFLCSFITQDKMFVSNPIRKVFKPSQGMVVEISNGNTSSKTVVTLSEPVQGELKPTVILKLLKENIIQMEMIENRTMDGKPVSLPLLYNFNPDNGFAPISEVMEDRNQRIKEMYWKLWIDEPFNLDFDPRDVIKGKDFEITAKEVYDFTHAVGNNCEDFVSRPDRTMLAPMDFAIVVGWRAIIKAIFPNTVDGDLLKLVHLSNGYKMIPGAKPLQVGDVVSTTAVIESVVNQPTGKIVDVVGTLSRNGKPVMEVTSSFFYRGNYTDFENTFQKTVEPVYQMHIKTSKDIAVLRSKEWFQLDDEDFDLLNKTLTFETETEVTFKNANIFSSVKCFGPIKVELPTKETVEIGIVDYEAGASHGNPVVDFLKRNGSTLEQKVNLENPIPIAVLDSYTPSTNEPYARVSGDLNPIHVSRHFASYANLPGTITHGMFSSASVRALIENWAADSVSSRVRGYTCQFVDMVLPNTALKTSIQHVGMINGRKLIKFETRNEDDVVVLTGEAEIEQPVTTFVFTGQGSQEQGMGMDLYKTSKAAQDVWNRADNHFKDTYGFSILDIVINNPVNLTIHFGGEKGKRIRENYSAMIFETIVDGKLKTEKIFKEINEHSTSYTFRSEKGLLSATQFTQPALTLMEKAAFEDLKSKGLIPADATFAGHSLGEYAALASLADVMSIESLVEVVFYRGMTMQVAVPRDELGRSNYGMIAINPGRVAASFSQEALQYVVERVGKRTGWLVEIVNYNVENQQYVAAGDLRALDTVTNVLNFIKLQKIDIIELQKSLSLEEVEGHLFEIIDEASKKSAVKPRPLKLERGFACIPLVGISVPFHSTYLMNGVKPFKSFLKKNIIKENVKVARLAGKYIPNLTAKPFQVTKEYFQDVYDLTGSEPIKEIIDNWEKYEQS
T1 sequence (P19097 whole entry): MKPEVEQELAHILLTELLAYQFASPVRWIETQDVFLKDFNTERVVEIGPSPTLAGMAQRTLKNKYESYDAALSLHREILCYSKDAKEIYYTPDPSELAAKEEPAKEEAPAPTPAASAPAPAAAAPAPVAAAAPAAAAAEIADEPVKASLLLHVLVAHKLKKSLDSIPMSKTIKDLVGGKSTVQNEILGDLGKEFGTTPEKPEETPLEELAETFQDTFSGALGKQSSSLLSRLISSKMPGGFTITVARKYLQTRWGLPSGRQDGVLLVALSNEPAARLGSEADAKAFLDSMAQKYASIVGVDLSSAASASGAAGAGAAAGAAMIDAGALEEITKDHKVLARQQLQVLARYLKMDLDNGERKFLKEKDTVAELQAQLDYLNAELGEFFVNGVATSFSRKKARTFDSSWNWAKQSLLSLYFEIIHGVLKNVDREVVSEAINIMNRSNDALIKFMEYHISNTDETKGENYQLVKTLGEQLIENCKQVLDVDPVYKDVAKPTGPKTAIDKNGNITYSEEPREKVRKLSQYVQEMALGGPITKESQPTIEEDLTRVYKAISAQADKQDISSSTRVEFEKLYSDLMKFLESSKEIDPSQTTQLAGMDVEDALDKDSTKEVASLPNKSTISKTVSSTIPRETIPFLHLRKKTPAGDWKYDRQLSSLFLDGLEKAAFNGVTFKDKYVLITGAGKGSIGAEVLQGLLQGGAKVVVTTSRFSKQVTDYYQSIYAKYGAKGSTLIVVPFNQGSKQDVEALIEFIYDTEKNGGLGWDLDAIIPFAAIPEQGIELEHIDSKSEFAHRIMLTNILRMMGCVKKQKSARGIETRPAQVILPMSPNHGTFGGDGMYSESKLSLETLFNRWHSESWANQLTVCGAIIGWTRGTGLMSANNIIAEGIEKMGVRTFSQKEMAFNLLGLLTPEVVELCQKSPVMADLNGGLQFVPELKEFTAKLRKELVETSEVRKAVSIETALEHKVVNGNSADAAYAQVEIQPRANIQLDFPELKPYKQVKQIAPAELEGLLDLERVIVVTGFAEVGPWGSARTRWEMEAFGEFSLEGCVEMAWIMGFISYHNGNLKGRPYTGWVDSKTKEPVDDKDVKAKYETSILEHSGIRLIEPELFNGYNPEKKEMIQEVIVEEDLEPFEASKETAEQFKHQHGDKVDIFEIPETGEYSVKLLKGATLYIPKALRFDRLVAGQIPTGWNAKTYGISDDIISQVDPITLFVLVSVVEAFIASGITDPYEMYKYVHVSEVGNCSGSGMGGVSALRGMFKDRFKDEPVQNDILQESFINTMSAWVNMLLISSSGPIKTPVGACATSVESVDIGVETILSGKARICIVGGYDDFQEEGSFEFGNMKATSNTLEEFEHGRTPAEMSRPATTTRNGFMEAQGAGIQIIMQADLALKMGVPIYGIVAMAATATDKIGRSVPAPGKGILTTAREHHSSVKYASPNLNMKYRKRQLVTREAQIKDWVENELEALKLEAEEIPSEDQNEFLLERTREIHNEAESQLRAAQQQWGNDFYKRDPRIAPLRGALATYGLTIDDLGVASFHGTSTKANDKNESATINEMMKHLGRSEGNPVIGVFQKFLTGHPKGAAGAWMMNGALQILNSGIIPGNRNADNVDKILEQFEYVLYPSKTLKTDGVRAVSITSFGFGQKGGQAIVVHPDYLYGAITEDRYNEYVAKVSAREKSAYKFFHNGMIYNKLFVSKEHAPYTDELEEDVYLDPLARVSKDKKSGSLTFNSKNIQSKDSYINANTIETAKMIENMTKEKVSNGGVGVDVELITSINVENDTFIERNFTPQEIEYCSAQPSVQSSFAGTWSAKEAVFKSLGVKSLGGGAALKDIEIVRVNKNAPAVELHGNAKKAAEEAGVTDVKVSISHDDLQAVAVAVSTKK
Description: In another inhibition assay, Saccharomyces cerevisiae FAS complex was obtained from a yeast extract (Sigma) and assayed as described in (Stoops et al., J.B.C., 253:4464-4475, 1978). A crude preparation of Candida albicans FAS can be prepared from a 1-21 YPD overnight culture of SC5314 following essentially the protocol used for S. cerevisiae FAS, with the exception that the last purification step by gel filtration was omitted. The assay cocktail contains: 0.14 mM NADPH, 0.36 mM acetyl-CoA, 0.18 mM malonyl-CoA, 5 mM EDTA, 8 mM DTT, 0.1 M MES pH 6, 100 μM compound in 1% DMSO, and fungal FAS extract. Changes in NADPH oxidation are followed for 1 hour using a BMG fluorimeter set at 340 nm excitation and 460 nm emission. The inhibition of fatty acid synthesis in these assays is expressed as a percent activity compared to the one obtained using 1% DMSO.
A FAS assay using partially purified S. cerevisiae FAS complex was used to measure NADPH oxidation as described herein.

C/C=C/C/C=C/CCC(=O)[C@H]1O[C@H]1C(N)=O [Cerulenin, 2,3-Epoxy-4-oxo-7,1-dodecadienamide]
gene induction of OLE1, YOL101c and YGL039w (mRNA) [1]: most highly induced genes | inhibition at 100 µM [2]: 80 to 90% | lacZ gene expression, OLE1 promoter strain (OLE1 promoter): increase in lacZ gene expression | induction of promoter activity (OLE1 promoter; 0.2 μg/ml): partial induction of promoter activity | induction of promoter activity (OLE1 promoter; 0.9 μM): 50% | increase in the level of chemiluminescence relative to uninduced control (OLE1 promoter; 2.0 μg/ml): 100 fold | induction of promoter activity (OLE1 promoter; 2.0 μg/ml): maximum induction of promoter activity | induction of promoter activity (OLE1 promoter; 9 μM): maximum induction of promoter activity | increase in chemiluminescence (OLE1 promoter; 9 μM, OLE1 promoter strain): 100-300 fold | OLE1 Fold-induction (100 μM) (OLE1 promoter; 100 μM, Pole1-lacZ reporter strain): 479 Fold | inhibition of fungal growth (S. cerevisiae mdr mutant; 0.2 μg/ml): no detectable inhibition of fungal growth | inhibition of fungal growth (S. cerevisiae mdr mutant; 0.9 μM): no detectable inhibition of fungal growth | inhibition of fungal growth (S. cerevisiae mdr mutant; 2.0 μg/ml): maximum inhibition of fungal growth | inhibition of fungal growth (S. cerevisiae mdr mutant; 9 μM): maximum inhibition of fungal growth | MIC (S. cerevisiae mdr mutant): 0.2 to 0.9 µM (≈ 0.0447 to 0.201 µg/mL) | MIC (S. cerevisiae mdr mutant; read-out: MIC value): 0.2 µM (≈ 0.0447 µg/mL) | lacZ gene expression, YOL101c promoter strain (YOL101c promoter): increase in lacZ gene expression | increase in chemiluminescence (YOL101c promoter; 9 μM, YOL101c promoter strain): 100-300 fold | lacZ gene expression, YGL039w promoter strain (YGL039w promoter): increase in lacZ gene expression | inhibition at 100 µM ([3]; 100 μM, within the first 30 minutes, read-out: inhibition of fatty acid synthesis (NADPH oxidation)): 80 to 90% | inhibition at 100 µM ([3]; read-out: FAS-NADPH ox % Inhibition @ 100 μM): 81% | IC50 ([3]; read-out: FAS-NADPH ox IC50): 700 to 1300 nM

Clc1ccc(COC(Cn2ccnc2)c2ccc(Cl)cc2Cl)c(Cl)c1 (stereo not drawn) [miconoazole]
induction of the OLE1 reporter (OLE1 promoter): induce this reporter

CCCCCCC(=O)CCCCCC/C=C/C[C@@H](O)[C@H](O)[C@@](N)(CO)C(=O)O [myriocin]
induction of the OLE1 reporter (OLE1 promoter): induce this reporter
